Several values for one entry are separate records, joined by “and”; a condition that tells them apart may be missing. Identical values can stand only once.
System: 299254-011-R-J1-PDC complex spheroid viability
Assay: Anticancer human tumor 299254-011-R-J1-PDC patient-derived melanoma cell line growth inhibition [POLQ]
Settings: for viability, T/C: stronger effect = lower value; for IC50: curve of compound
Protocol: Multicellular complex tumor spheroid response to Polymerase (POL) inhibitors (novobiocin, ART-558, RP6685) in combination with a variety of drugs and investigational agents in selected tumor cell lines
The POL inhibitors (novobiocin, ART-558, and RP6685) were evaluated both individually and in combination with standard of care and investigational anticancer small molecules within a complex spheroid model of solid tumors. . Complex spheroids include a stromal component modeled by human endothelial cells (HUVEC) and fibroblasts modeled by human mesenchymal stem cells (MSCs). The concentration ranges selected for each drug and investigational agent were based upon clinically achievable concentrations if the clinical Cmax of the agent was known.
Compounds. The drugs and investigational agents: novobiocin (NSC847541), ART-558 (NSC835418), RP-6685 (NSC848927), peposertib (NSC802822), ceralasertib (NSC780249), elimusertib (NSC800525), camonsertib (NSC841442), AZD-1390 (NSC803789), olaparib (NSC753686), talazoparib (NSC767125), rucaparib (NSC756644), sotorasib (NSC818433), MRTX-1133 (NSC836407), SN-38 (NSC673596), topotecan (NSC609699), epotoside (NSC141540), doxorubicin (NSC123127), gemcitabine (NSC613327), 5-fluorouracil (NSC19893), paclitaxel (NSC125973), vemurafenib (NSC761431), MSA-2 (NSC828583), SN-011 (NSC837082), adavosertib (NSC754352), prexasertib (NSC758257), carboplatin (NSC241240) and oxaliplatin (NSC266046), were obtained from the National Cancer Institute (NCI) Developmental Therapeutics Program Chemical Repository (21). The FDA-approved anticancer drug set is available from the Developmental Therapeutics Program at https://dtp.cancer.gov/organization/dscb/obtaining/. […] The stock solutions were prepared in dimethyl sulfoxide (DMSO, Sigma-Aldrich, St. Louis, MO, cat. D2650), except for the platinum compounds which were prepared in saline (Quality Biological, Gaithersburg, MD, cat. 114-055-101), at 800-fold the tested concentration and stored at -70 degrees C prior to their use. All drugs and investigational agents were tested over a range starting from a high concentration at or near the clinical Cmax and decreasing in half-log increments. If the clinical Cmax for an agent had not been determined, the highest concentration tested was 10 microM, except for SN-38, which was tested at a high concentration of 1 microM.
Cell Culture. All cells were maintained in an incubator at 37 degrees C and 5% CO2 with 95% humidity. The PDC lines were cultured according to standard operating procedures established by the NCI PDMR (https://pdmr.cancer.gov). Table 3 of the manuscript, lists the cell lines along with the number of the three cell types plated to form the mct-spheroids and media for tumor cell growth. After thawing, all PDC lines, except 997537-175-T-J1-PDC and 415267-285-R-J2-PDC, were cultured in Matrigel-coated flasks prepared with a working solution of 1X Ham's F-12 nutrient mix, without supplementation (Thermo Fisher Scientific, cat. 11765054), 100 U/mL penicillin-streptomycin (Thermo Fisher Scientific, cat. 15140122), and 2.5% Matrigel (Corning Inc., Corning, NY, cat. 354248) for the first three passages. The two PDC lines 997537-175-T-J1-PDC and 415267-285-R-J2-PDC were cultured on uncoated flasks. The 857933-349-R-J2-PDC line was cultured in 6C/Colon 1B media containing advanced DMEM/F-12 (Thermo Fisher Scientific, cat. 12634028), 10 mM HEPES (Thermo Fisher Scientific, cat. 15630080), 1X GlutaMAX supplement (Thermo Fisher Scientific, cat. 35050061), 0.1 mg/mL primocin (InvivoGen, San Diego, CA, cat. ant-pm-2), 10% defined fetal bovine serum, heat inactivated (HyClone Laboratories Inc., Logan, UT, cat. SH30070.03HI), 50% L-WRN conditioned media (ATCC, cat. CRL-3276), 1.25 mM N-Acetyl-L-cysteine (Sigma-Aldrich, cat. A9165), 10 mM nicotinamide (Sigma-Aldrich, cat. N0636), 1X B-27 supplement (Thermo Fisher Scientific, cat. 17504044), 1X N-2 supplement (Thermo Fisher Scientific, cat. […]
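Note: spheroids exposed to drugs for one week before measurement.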
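Throughout, for viability, T/C: percent viability relative to DMSO vehicle control taken as 100%.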

SMILES: C#Cc1c(F)ccc2cc(O)cc(-c3ncc4c(N5CC6CCC(C5)N6)nc(OCC56CCCN5CC(F)C6)nc4c3F)c12 (stereo unspecified)
- viability, T/C (compound 0.0316 µM): 90.8% and 94.2% and 98%
- viability, T/C (compound 0.1 µM): 109% and 101% and 94.8%
- viability, T/C (compound 0.316 µM): 113% and 107% and 110%
- viability, T/C (compound 1 µM): 117% and 116% and 112%
- viability, T/C (compound 3.16 µM): 102% and 117% and 93.7%
- viability, T/C (compound 10 µM): 84.7% and 82.2% and 84.4%
- IC50: > 10000 nM

SMILES: C=CC(=O)N1CCN(c2nc(=O)n(-c3c(C)ccnc3C(C)C)c3nc(-c4c(O)cccc4F)c(F)cc23)C(C)C1 (stereo unspecified)
- viability, T/C (compound 0.0316 µM): 84.9% and 90.1% and 80.7%
- viability, T/C (compound 0.1 µM): 71.5% and 77.5% and 66.9%
- viability, T/C (compound 0.316 µM): 85.2% and 74.5% and 70.9%
- viability, T/C (compound 1 µM): 72.8% and 66.9% and 60.2%
- viability, T/C (compound 3.16 µM): 63.5% and 85.5% and 63%
- viability, T/C (compound 10 µM): 66.1% and 77.9% and 62.6%
- IC50: > 10000 nM

SMILES: C=CCn1c(=O)c2cnc(Nc3ccc(N4CCN(C)CC4)cc3)nc2n1-c1cccc(C(C)(C)O)n1
- viability, T/C (compound 0.00316 µM): 101% and 90.2% and 103%
- viability, T/C (compound 0.01 µM): 98.3% and 97.1% and 94.1%
- viability, T/C (compound 0.0316 µM): 106% and 114% and 110%
- viability, T/C (compound 0.1 µM): 115% and 104% and 105%
- viability, T/C (compound 0.316 µM): 83.5% and 95.6% and 103%
- viability, T/C (compound 1 µM): 79.1% and 78.9% and 58.3%
- IC50: > 1000 nM

SMILES: CC(=O)O[C@H]1C(=O)[C@@]2(C)[C@H]([C@H](OC(=O)c3ccccc3)[C@]3(O)C[C@H](OC(=O)[C@H](O)[C@@H](NC(=O)c4ccccc4)c4ccccc4)C(C)=C1C3(C)C)[C@]1(OC(C)=O)CO[C@@H]1C[C@@H]2O
- viability, T/C (compound 0.00949 µM): 84.8% and 82.2% and 94.2%
- viability, T/C (compound 0.03 µM): 76.5% and 84.1% and 70.9%
- viability, T/C (compound 0.0949 µM): 49.1% and 47.2% and 41.7%
- viability, T/C (compound 0.3 µM): 31.8% and 42.1% and 26.9%
- viability, T/C (compound 0.949 µM): 22.3% and 28.3% and 21.8%
- viability, T/C (compound 3 µM): 28.1% and 22.8% and 15.4%
- IC50: 93.2 nM and 125 nM and 70.4 nM

SMILES: CC(C)n1c(=O)n(C)c2cnc3cc(F)c(-c4ccc(OCCCN5CCCCC5)nc4)cc3c21
- viability, T/C (compound 0.0316 µM): 98.8% and 106% and 88.4%
- viability, T/C (compound 0.1 µM): 96.7% and 99.9% and 85.7%
- viability, T/C (compound 0.316 µM): 112% and 108% and 95.3%
- viability, T/C (compound 1 µM): 101% and 95.5% and 94.9%
- viability, T/C (compound 3.16 µM): 89.8% and 106% and 90.2%
- viability, T/C (compound 10 µM): 73.4% and 78.9% and 88.5%
- IC50: > 10000 nM

SMILES: CC1COCCN1c1cc(-c2ccnn2C)c2ccnc(-c3ccn[nH]3)c2n1 (stereo unspecified)
- viability, T/C (compound 0.0316 µM): 96.6% and 111% and 99%
- viability, T/C (compound 0.1 µM): 67.8% and 70% and 78.4%
- viability, T/C (compound 0.316 µM): 46.7% and 46.5% and 50.2%
- viability, T/C (compound 1 µM): 30.8% and 31.4% and 31.7%
- viability, T/C (compound 3.16 µM): 21.6% and 31.1% and 23.9%
- viability, T/C (compound 10 µM): 18.8% and 20.6% and 22.7%
- IC50: 255 nM and 265 nM and 320 nM

SMILES: CC1COCCN1c1cc(C2(O)CC3CCC(C2)O3)c2cnn(-c3ccn[nH]3)c2n1 (stereo unspecified)
- viability, T/C (compound 0.0316 µM): 84.1% and 85.2% and 80.8%
- viability, T/C (compound 0.1 µM): 66.5% and 64.7% and 57.4%
- viability, T/C (compound 0.316 µM): 34.4% and 36.9% and 39.6%
- viability, T/C (compound 1 µM): 26.3% and 17.9% and 25.1%
- viability, T/C (compound 3.16 µM): 14.4% and 15.1% and 20.3%
- viability, T/C (compound 10 µM): 8.87% and 10.7% and 12.4%
- IC50: 190 nM and 182 nM and 159 nM

SMILES: CC1COCCN1c1cc(C2(S(C)(=N)=O)CC2)nc(-c2ccnc3[nH]ccc23)n1 (stereo unspecified)
- viability, T/C (compound 0.0316 µM): 92.2% and 108% and 93.8%
- viability, T/C (compound 0.1 µM): 101% and 108% and 94.5%
- viability, T/C (compound 0.316 µM): 106% and 104% and 111%
- viability, T/C (compound 1 µM): 85.5% and 84.5% and 95%
- viability, T/C (compound 3.16 µM): 57.9% and 60.5% and 65.8%
- viability, T/C (compound 10 µM): 41.8% and 43.3% and 37.2%
- IC50: 5430 nM and 6330 nM and 5970 nM

SMILES: CCCS(=O)(=O)Nc1ccc(F)c(C(=O)c2c[nH]c3ncc(-c4ccc(Cl)cc4)cc23)c1F
- viability, T/C (compound 0.0316 µM): 114% and 106% and 96.5%
- viability, T/C (compound 0.1 µM): 99.7% and 109% and 112%
- viability, T/C (compound 0.316 µM): 118% and 95.7% and 123%
- viability, T/C (compound 1 µM): 102% and 122% and 117%
- viability, T/C (compound 3.16 µM): 109% and 107% and 120%
- viability, T/C (compound 10 µM): 50.6% and 47.5% and 69.2%
- IC50: > 10000 nM and 9540 nM

SMILES: CC[C@@]1(O)C(=O)OCc2c1cc1n(c2=O)Cc2cc3c(CN(C)C)c(O)ccc3nc2-1
- viability, T/C (compound 0.000316 µM): 98.9% and 101% and 112%
- viability, T/C (compound 0.001 µM): 94.2% and 113% and 101%
- viability, T/C (compound 0.00316 µM): 106% and 89.5% and 111%
- viability, T/C (compound 0.01 µM): 103% (2×) and 114%
- viability, T/C (compound 0.0316 µM): 107% and 108% and 94.4%
- viability, T/C (compound 0.1 µM): 78.4% and 81.1% and 72.7%
- IC50: > 100 nM

SMILES: CCc1c2c(nc3ccc(O)cc13)-c1cc3c(c(=O)n1C2)COC(=O)[C@]3(O)CC
- viability, T/C (compound 0.00316 µM): 94.6% and 92.7% and 99.2%
- viability, T/C (compound 0.01 µM): 89.3% and 93.2% and 77.9%
- viability, T/C (compound 0.0316 µM): 75.9% and 72.8% and 82%
- viability, T/C (compound 0.1 µM): 67.9% and 81.2% and 60.7%
- viability, T/C (compound 0.316 µM): 69.4% and 75.8% and 59.4%
- viability, T/C (compound 1 µM): 51.7% and 59.2% and 59.4%
- IC50: > 1000 nM

SMILES: CCc1cc2c(N3CCc4c(cc(Cn5ccnc5)cc4-c4cn(C)nc4C(F)(F)F)C3=O)cc(C)nc2c(OC)n1
- viability, T/C (compound 0.0316 µM): 131% and 104% and 92.7%
- viability, T/C (compound 0.1 µM): 90.2% and 96.5% and 106%
- viability, T/C (compound 0.316 µM): 118% and 92.2% and 99.7%
- viability, T/C (compound 1 µM): 99.2% and 94.1% and 99.4%
- viability, T/C (compound 3.16 µM): 103% and 86.5% and 90.4%
- viability, T/C (compound 10 µM): 59.6% and 62.7% and 67.7%
- IC50: > 10000 nM

SMILES: CCc1cc2c(N3CCc4c(cc(Cn5ccnc5)cc4-c4cn(C)nc4C(F)(F)F)C3=O)ccnc2c(OC)n1
- viability, T/C (compound 0.0316 µM): 97% and 108% and 110%
- viability, T/C (compound 0.1 µM): 105% and 116% and 102%
- viability, T/C (compound 0.316 µM): 96.3% and 113% and 109%
- viability, T/C (compound 1 µM): 93.1% and 100% and 93.5%
- viability, T/C (compound 3.16 µM): 98% and 90.8% and 98.3%
- viability, T/C (compound 10 µM): 84.2% and 82% and 82.5%
- IC50: > 10000 nM
